Legend:
Androgen receptor [1] = target: T1, Androgen receptor (Homo sapiens, UniProt P10275); test: biochemical
T1 sequence (P10275 whole entry): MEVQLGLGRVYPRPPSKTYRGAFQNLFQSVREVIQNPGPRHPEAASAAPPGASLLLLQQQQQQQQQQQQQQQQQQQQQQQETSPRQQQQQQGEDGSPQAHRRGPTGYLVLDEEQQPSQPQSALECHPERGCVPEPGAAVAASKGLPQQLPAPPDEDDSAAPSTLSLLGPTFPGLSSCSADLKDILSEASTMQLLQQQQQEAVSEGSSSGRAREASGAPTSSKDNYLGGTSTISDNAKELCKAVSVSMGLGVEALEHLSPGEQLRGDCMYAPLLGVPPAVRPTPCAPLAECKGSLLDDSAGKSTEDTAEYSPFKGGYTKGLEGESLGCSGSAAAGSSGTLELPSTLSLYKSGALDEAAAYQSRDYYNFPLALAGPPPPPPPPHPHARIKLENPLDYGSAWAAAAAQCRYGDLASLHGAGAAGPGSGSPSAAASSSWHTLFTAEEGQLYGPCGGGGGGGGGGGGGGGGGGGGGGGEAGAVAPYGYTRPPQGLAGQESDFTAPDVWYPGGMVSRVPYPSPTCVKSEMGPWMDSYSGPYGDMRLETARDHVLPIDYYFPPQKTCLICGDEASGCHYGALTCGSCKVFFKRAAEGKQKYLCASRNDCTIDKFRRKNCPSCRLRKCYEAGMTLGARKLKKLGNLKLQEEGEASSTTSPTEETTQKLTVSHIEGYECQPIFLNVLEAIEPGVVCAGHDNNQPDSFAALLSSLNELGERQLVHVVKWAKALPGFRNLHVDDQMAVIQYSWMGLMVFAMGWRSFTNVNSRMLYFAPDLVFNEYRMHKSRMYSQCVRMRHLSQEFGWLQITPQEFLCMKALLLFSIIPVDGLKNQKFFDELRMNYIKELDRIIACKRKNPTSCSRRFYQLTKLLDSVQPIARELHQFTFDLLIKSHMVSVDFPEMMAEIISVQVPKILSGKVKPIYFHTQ
Description: Binding affinity for human androgen receptor in transiently-transfected COS-1 cells.

Androgen receptor [2] = target: T1, Androgen receptor
Description: Antagonistic activity against human androgen receptor (hAR) in co-transfected CV-1 cells.

[3] = target: T2, Progesterone receptor (Homo sapiens) (UniProt P06401); test: Efficacy as a function of maximal inhibition against human progesterone receptor B (hPR-B).
T2 sequence (whole entry): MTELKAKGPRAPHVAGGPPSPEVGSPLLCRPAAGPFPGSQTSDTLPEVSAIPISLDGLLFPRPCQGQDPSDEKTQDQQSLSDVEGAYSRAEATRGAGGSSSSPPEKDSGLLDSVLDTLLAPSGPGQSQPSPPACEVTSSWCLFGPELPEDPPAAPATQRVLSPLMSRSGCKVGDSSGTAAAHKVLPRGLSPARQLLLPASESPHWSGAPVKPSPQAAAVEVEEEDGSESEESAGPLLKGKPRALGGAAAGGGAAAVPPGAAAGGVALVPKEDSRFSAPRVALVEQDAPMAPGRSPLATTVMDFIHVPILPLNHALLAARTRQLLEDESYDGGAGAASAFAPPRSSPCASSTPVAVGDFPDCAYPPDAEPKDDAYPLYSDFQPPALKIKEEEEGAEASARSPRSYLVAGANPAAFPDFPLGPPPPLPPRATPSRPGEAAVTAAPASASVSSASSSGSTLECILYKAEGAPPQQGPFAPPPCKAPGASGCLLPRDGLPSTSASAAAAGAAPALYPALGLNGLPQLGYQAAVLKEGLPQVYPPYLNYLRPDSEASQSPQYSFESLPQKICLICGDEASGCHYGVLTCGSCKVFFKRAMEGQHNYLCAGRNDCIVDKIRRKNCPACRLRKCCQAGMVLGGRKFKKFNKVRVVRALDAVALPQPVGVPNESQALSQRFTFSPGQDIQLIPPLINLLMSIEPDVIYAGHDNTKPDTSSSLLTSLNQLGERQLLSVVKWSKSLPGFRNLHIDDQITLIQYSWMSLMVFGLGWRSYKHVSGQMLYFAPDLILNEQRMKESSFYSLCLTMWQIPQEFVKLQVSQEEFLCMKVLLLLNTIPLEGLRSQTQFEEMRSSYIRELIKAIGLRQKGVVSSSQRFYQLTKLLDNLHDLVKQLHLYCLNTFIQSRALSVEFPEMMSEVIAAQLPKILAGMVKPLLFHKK

Progesterone receptor = target: T3, Progesterone receptor (Homo sapiens, UniProt P06401); test: Antagonistic activity against human progesterone receptor B (hPR-B) in co-transfected CV-1 cells.; format: functional, cell-based
T3 sequence (P06401 whole entry): T2 sequence (whole entry)

SMILES	Ki (Androgen receptor [1]) [nM]	IC50 (Androgen receptor [2]) [nM]	Efficacy [3] [%]	IC50 (Progesterone receptor) [nM]
CCC1(C)CCc2cc3c(C(F)(F)F)cc(=O)n(C)c3cc2N1C (stereo unspecified)	10	24	92	1100
CCC1Cc2cc3c(C(F)(F)F)cc(O)nc3cc2NC1(C)C (stereo unspecified)	–	–	82	–
CC1=CC(C)(C)N(C)c2cc3nc(O)cc(C(F)(F)F)c3cc21	695	156	55	1680
CC(=O)O[C@]1(C(C)=O)CC[C@H]2[C@@H]3C=C(Cl)C4=CC(=O)[C@@H]5C[C@@H]5[C@]4(C)[C@H]3CC[C@@]21C	–	–	12	–
CC1=C(C)C(C)(C)Nc2cc3[nH]c(=O)cc(C(F)(F)F)c3cc21	268	68	–	393
CCC1(C)CCc2cc3c(C(F)(F)F)cc(O)nc3cc2N1 (stereo unspecified)	–	–	91	–
CC12CCCN1c1cc3nc(O)cc(C(F)(F)F)c3cc1CC2 (stereo unspecified)	–	–	11	> 10000
CC1(C)CCc2cc3c(C(F)(F)F)cc(O)nc3cc2N1	–	–	80	–
CC1=C(C)C(C)(C)Nc2cc3nc(O)cc(C(F)(F)F)c3cc21	–	–	65	–
C[C@@H]1c2cc3c(C(F)(F)F)cc(O)nc3cc2NC(C)(C)[C@H]1C	–	–	92	735
CC1=CC(C)(C)Nc2cc3nc(O)cc(C)c3cc21	–	–	83	–
CC1=CC(C)(C)Nc2c1cc1c(C(F)(F)F)cc(=O)n(C)c1c2C	874	–	68	4400
CC1Cc2cc3c(C(F)(F)F)cc(=O)[nH]c3cc2NC1(C)C (stereo unspecified)	73	30	–	348
CC1c2cc3c(C(F)(F)F)cc(O)nc3cc2NC(C)(C)C1(C)C (stereo unspecified)	358	57	93	362
CC(C)(O)C(=O)Nc1ccc([N+](=O)[O-])c(C(F)(F)F)c1	–	–	90	–
CC1(C)Cc2cc3c(C(F)(F)F)cc(=O)[nH]c3cc2NC1(C)C	189	83	–	876
Cn1c(=O)cc(C(F)(F)F)c2cc3c(cc21)N1CCCC1(C)CC3 (stereo unspecified)	–	–	84	398
CC1(C)C=Cc2cc3c(C(F)(F)F)cc(O)nc3cc2N1	86	58	81	390
CN1c2cc3c(cc2CCC1(C)C)c(C(F)(F)F)cc(=O)n3C	17	19	85	2200
CC1(C)CCc2cc3c(C(F)(F)F)cc(=O)[nH]c3cc2N1	–	–	–	330
Cc1c2c(cc3c(C(F)(F)F)cc(=O)n(C)c13)C(C)CC(C)(C)N2 (stereo unspecified)	40	31	79	2930
CCC1(C)CCc2cc3c(C(F)(F)F)cc(=O)[nH]c3cc2N1 (stereo unspecified)	–	–	–	543
CCC1(C)CCc2cc3c(C(F)(F)F)cc(=O)n(C)c3cc2N1 (stereo unspecified)	69	48	73	3280

SMILES	Ki (Androgen receptor [1]) [nM]	IC50 (Androgen receptor [2]) [nM]	Efficacy [3] [%]	IC50 (Progesterone receptor) [nM]
CC1=CC(C)(C)Nc2cc3c(cc21)c(C(F)(F)F)cc(=O)n3C	81	34	88	233
CC1=CC(C)(C)Nc2c1cc1c(C(F)(F)F)cc(O)nc1c2C	–	–	88	–
CC1=CC(C)(C)Nc2cc3[nH]c(=O)cc(C)c3cc21	62	36	–	109
C[C@H]1c2cc3c(C(F)(F)F)cc(O)nc3cc2NC(C)(C)[C@H]1C	–	–	95	310
CC1CC(C)(C)Nc2cc3c(cc21)c(C(F)(F)F)cc(=O)n3C (stereo unspecified)	46	73	98	585
CCCC1(C)CCc2cc3c(C(F)(F)F)cc(O)nc3cc2N1 (stereo unspecified)	–	–	86	–
Cn1c(=O)cc(C(F)(F)F)c2cc3c(cc21)NC(C)(C)CC3	56	36	74	1240
CCC1(CC)CCc2cc3c(C(F)(F)F)cc(O)nc3cc2N1	102	27	81	2710
CC1Cc2cc3c(C(F)(F)F)cc(O)nc3cc2NC1(C)C (stereo unspecified)	–	–	89	–
CCC1Cc2cc3c(C(F)(F)F)cc(=O)[nH]c3cc2NC1(C)C (stereo unspecified)	251	46	–	2330
CC(C)C1CC(C)(C)Nc2cc3nc(O)cc(C(F)(F)F)c3cc21 (stereo unspecified)	650	159	59	3160
CC1=CC(C)(C)N(C)c2cc3c(cc21)c(C(F)(F)F)cc(=O)n3C	39	46	91	136
CCCC1(C)CCc2cc3c(C(F)(F)F)cc(=O)[nH]c3cc2N1 (stereo unspecified)	69	42	–	1140
CCC1CC(C)(C)Nc2cc3nc(O)cc(C(F)(F)F)c3cc21 (stereo unspecified)	54	27	74	274
CC1=CC(C)(C)Nc2cc3nc(O)cc(C(F)(F)F)c3cc21	–	–	62	–
Cc1c2c(cc3c(C(F)(F)F)cc(O)nc13)C(C)CC(C)(C)N2 (stereo unspecified)	–	–	74	–
CCn1c(=O)cc(C(F)(F)F)c2cc3c(cc21)NC(C)(C)C=C3C	670	692	55	1760
CC1CC(C)(C)Nc2cc3nc(O)cc(C(F)(F)F)c3cc21 (stereo unspecified)	–	–	86	231
CC1(C)Cc2cc3c(C(F)(F)F)cc(O)nc3cc2NC1(C)C	–	–	98	–
CC(O)(CS(=O)(=O)c1ccc(F)cc1)C(=O)Nc1ccc(C#N)c(C(F)(F)F)c1 (stereo unspecified) [BICALUTAMIDE]	–	–	88	1820
Oc1cc(C(F)(F)F)c2cc3c(cc2n1)NC1(CCCCC1)CC3	9	35	94	1830
CC1=CC(C)(C)Nc2cc3[nH]c(=O)cc(C(F)(F)F)c3cc21	–	–	–	49
Cc1c2c(cc3c(C(F)(F)F)cc(=O)[nH]c13)C(C)CC(C)(C)N2 (stereo unspecified)	85	22	–	3730

From ChEMBL document CHEMBL1131477, “Synthesis and biological activity of a novel series of nonsteroidal, peripherally selective androgen receptor antagonists derived from 1,2-dihydropyridono[5,6-g]quinolines” (J Med Chem, 1998)
